Data on 64 molecules can be found in patent publication US20220340564A1, “ANTIBACTERIAL COMPOUNDS” (Janssen Sciences Ireland Unlimited Company, priority 2019, published 2022).

The structures appear in SMILES notation.

The assay deals with Mycobacterium tuberculosis strain EH4.0 expressing green-fluorescent protein (GFP). As to the kind of experiment: microbe, parasite or virus in culture. The assay is classed as cell-based. The settings on record: 168 h, read-out: pIC50 (converted).
Turning to `CCOc1cn2c(CC)c(C(=O)NCc3ccc(N4CCN(S(=O)(=O)C(F)(F)F)C=N4)c(F)c3)nc2nc1N1CCCC1` [Compound 81], the IC50 is at least 501 nM.
On to `CCc1nc2ccc(C)cn2c1C(=O)NCc1ccc(N2CCN(S(=O)(=O)C(F)(F)F)C=N2)c(F)c1` [Compound 164], for which the IC50 is 0.245 nM.
To `O=C(NCc1ccc(N2CCN(S(=O)(=O)C(F)(F)F)C=N2)c(F)c1)c1c(C(F)(F)F)nc2cc(F)c(Cl)cn12` [Compound 114] belongs 16.2 nM; to `CCc1nc2cc(Br)c(C)cn2c1C(=O)NCc1ccc(N2CCN(S(=O)(=O)C(F)(F)F)C=N2)c(F)c1` [Compound 97], 33.9 nM.
Consider `CCc1nc2ccc(Cl)cn2c1C(=O)NCc1ccc(N2CCNC(OC)=N2)c(F)c1` [Compound 110], for which the IC50 was 18.6 nM.
As for `CCc1nc2ccc(CCCOC)cn2c1C(=O)NCc1ccc(N2CCN(S(=O)(=O)C(F)(F)F)C=N2)cc1` [Compound 63], the IC50 is at least 501 nM.
Under `CCc1nc2ccc(F)cn2c1C(=O)NCc1ccc(N2CCN(S(=O)(=O)C(F)(F)F)C=N2)c(F)c1` [Compound 156] stands 1.38 nM.
To `CCc1nc2ccc(Cl)cn2c1C(=O)NCc1ccc(N2CCN(S(=O)(=O)C(F)(F)F)C(CCO)=N2)cc1` [Compound 40] belongs 63.1 nM.
To `COC1=NN(c2ccc(CNC(=O)c3c(C(F)F)nc4n3CCCC4)cc2)CCN1S(=O)(=O)C(F)(F)F` [Compound 109] belongs 20 nM; to `CCc1nc2ccc(Cl)cn2c1C(=O)NCc1ccc(N2CCN(C)C=N2)cc1` [Compound 15], 25.1 nM.
As to `CCc1nc2c(Cl)c(OC)ccn2c1C(=O)NCc1ccc(N2CCN(S(=O)(=O)C(F)(F)F)C=N2)cc1` [Compound 39], the IC50 was 79.4 nM.
`CCc1nc2c(F)cc(C)cn2c1C(=O)NCc1cnc(N2CCNC=N2)c(F)c1` [Compound 187]: the IC50 is at least 501 nM.
Under `Cc1nc2sc(Cl)cn2c1C(=O)NCc1ccc(N2CCN(S(=O)(=O)C(F)(F)F)C=N2)c(F)c1` [Compound 133] stands 7.59 nM; under `CCc1nc2nc(Cl)ccn2c1C(=O)NCc1ccc(N2CCN(S(=O)(=O)C(F)(F)F)C=N2)c(F)c1` [Compound 125], 9.77 nM.
To `CCc1nc2sc(C)cn2c1C(=O)NCc1ccc(N2CCN(S(=O)(=O)C(F)(F)F)C=N2)c(F)c1` [Compound 163] belongs 0.316 nM; to `CCc1nc2c(C)cc(OC)cn2c1C(=O)NCc1ccc(N2CCN(S(=O)(=O)C(F)(F)F)C=N2)c(F)c1` [Compound 105], 27.5 nM.
Under `CCc1nc2ccc(Cl)cn2c1C(=O)NCc1ccc(N2CCN(C)C(C)=N2)cc1` [Compound 59] stands 200 nM; under `O=C(NCc1ccc(N2CCN(S(=O)(=O)C(F)(F)F)C=N2)c(F)c1)c1c(C(F)F)nc2n1CCCC2` [Compound 147], 3.8 nM.
For the molecule `CCc1nc2cc(C)c(C)cn2c1C(=O)NCc1cnc(N2CCN(S(=O)(=O)C(F)(F)F)C=N2)c(F)c1` [Compound 185], the IC50 is 46.8 nM.
Under `CCc1nc2cc(OC)c(OC)cn2c1C(=O)NCc1ccc(N2CCN(S(=O)(=O)C(F)(F)F)C(OC)=N2)c(F)c1` [Compound 53] stands 81.3 nM.
On to `CCc1nc2ccc(Cl)cn2c1C(=O)NCc1ccc(N2CCN(c3nccs3)C=N2)cc1` [Compound 76], for which the IC50 was 13.5 nM.
Under `CCc1nc2ncc(C)cn2c1C(=O)NCc1cnc(N2CCN(S(=O)(=O)C(F)(F)F)C=N2)c(F)c1` [Compound 201] stands 12 nM.
Under `CCc1nc2ccc(Cl)cn2c1C(=O)NCc1ccc(N2CCNC(OC)=N2)cc1` [Compound 96] stands 36.3 nM; under `CCc1nc2cc(C)c(Cl)cn2c1C(=O)NCc1ccc(N2CCN(S(=O)(=O)C(F)(F)F)C(OC)=N2)cc1` [Compound 108], 20.4 nM; under `CCc1nc2nc(C)c(Cl)cn2c1C(=O)NCc1ccc(N2CCN(S(=O)(=O)C(F)(F)F)C=N2)c(F)c1` [Compound 155], 1.62 nM.
To `CCc1nc2ncc(Cl)cn2c1C(=O)NCc1ccc(N2CCN(S(=O)(=O)CC(C)C)C=N2)cc1` [Compound 23] belongs 12.6 nM.
For `O=C(NCc1ccc(N2CCN(S(=O)(=O)C(F)(F)F)C=N2)c(F)c1)c1c(C(F)F)nc2ccccn12` [Compound 159], the IC50 was 1.2 nM.
Under `CCc1nc2ccc(Cl)cn2c1C(=O)NCc1ccc(N2CCN(S(=O)(=O)C(F)(F)F)C=N2)cc1OC` [Compound 22] stands 398 nM.
To `O=C(NCc1ccc(N2CCN(S(=O)(=O)C(F)(F)F)C=N2)cc1)c1c(C(F)F)nc2n1CCCC2` [Compound 104] belongs 28.2 nM; to `CCc1nc2nc(OCc3ccccc3)c(F)cn2c1C(=O)NCc1ccc(N2CCN(S(=O)(=O)C(F)(F)F)C=N2)c(F)c1` [Compound 189], at least 501 nM.
To `CCc1nc2nc(C)ccn2c1C(=O)NCc1ccc(N2CCN(S(=O)(=O)C(F)(F)F)C=N2)c(F)c1` [Compound 111] belongs 18.2 nM.
Take `CCc1nc2cc(C)c(Cl)cn2c1C(=O)NCc1ccc(N2CCN(S(=O)(=O)C(F)(F)F)C=N2)c(F)c1` [Compound 116]: the IC50 was 15.1 nM.
To `CCc1nc2c(F)cc(Cl)cn2c1C(=O)NCc1ccc(N2CCN(S(=O)(=O)C(F)(F)F)C(OC)=N2)c(F)c1` [Compound 210] belongs 3.02 nM; to `CCc1nc2nc(N)c(Cl)cn2c1C(=O)NCc1ccc(N2CCN(S(=O)(=O)C(F)(F)F)C=N2)c(F)c1` [Compound 126], 9.77 nM.
To `CCc1nc2nc3c(cn2c1C(=O)NCc1ccc(N2CCN(S(=O)(=O)C(F)(F)F)C=N2)c(F)c1)CCCC3` [Compound 119] belongs 13.5 nM; to `O=C(NCc1ccc(N2CCN(S(=O)(=O)C(F)(F)F)C=N2)cc1)c1c(C(F)F)nc2ccccn12` [Compound 128], 9.12 nM; to `CCc1nc2cc(F)c(Cl)cn2c1C(=O)NCc1ccc(N2CCN(S(=O)(=O)C(F)(F)F)C=N2)c(F)c1` [Compound 157], 1.38 nM.
To `Cc1cn2c(C(=O)NCc3ccc(N4CCN(S(=O)(=O)C(F)(F)F)C=N4)c(F)c3)c(C)nc2s1` [Compound 153] belongs 1.78 nM; to `CCc1nc2ccc(N3CCCC3)cn2c1C(=O)NCc1ccc(N2CCN(S(=O)(=O)C(F)(F)F)C=N2)cc1` [Compound 65], at least 501 nM; to `CCc1nc2nc(C)c(Cl)cn2c1C(=O)NCc1ccc(N2CCNC=N2)c(F)c1` [Compound 199], above 500 nM.
On to `CCc1nc2ccc(OC)cn2c1C(=O)NCc1ccc(N2CCN(S(=O)(=O)C(F)(F)F)C=N2)cc1` [Compound 42], for which the IC50 was 6.31 nM.
Under `O=C(NCc1ccc(N2CCN(S(=O)(=O)C(F)(F)F)C=N2)c(F)c1)c1c(C(F)(F)F)nc2n1CCCC2` [Compound 123] stands 10.2 nM; under `CCc1nc2cc3c(cn2c1C(=O)NCc1ccc(N2CCN(S(=O)(=O)C(F)(F)F)C=N2)c(F)c1)OCCN3C` [Compound 191], 38 nM; under `CCc1nc2cc3c(cn2c1C(=O)NCc1ccc(N2CCN(S(=O)(=O)C(F)(F)F)C=N2)c(F)c1)CCC3` [Compound 113], 16.2 nM.
Under `CCc1nc2ncc(Cl)cn2c1C(=O)NCc1ccc(N2CCN(S(=O)(=O)C(F)(F)F)C(OC)=N2)cc1` [Compound 27] stands 2 nM.
Consider `CCc1nc2nc(OC)c(F)cn2c1C(=O)NCc1ccc(N2CCN(S(=O)(=O)C(F)(F)F)C=N2)c(F)c1` [Compound 179], for which the IC50 is 126 nM.
Under `COC1=NN(c2ccc(CNC(=O)c3c(C)nn4ccc(OC)cc34)cc2)CCN1S(=O)(=O)C(F)(F)F` [Compound 34] stands 10 nM; under `O=C(NCc1ccc(N2CCN(S(=O)(=O)C(F)(F)F)C=N2)cc1)c1c(C(F)(F)F)nc2ccccn12` [Compound 127], 9.55 nM; under `CCc1nc2cc(OC)ccn2c1C(=O)NCc1ccc(N2CCN(S(=O)(=O)C(F)(F)F)C(OC)=N2)cc1` [Compound 52], 41.7 nM.
Under `CCc1nc2ccc(Cl)cn2c1C(=O)NCc1ccc(N2CCNC=N2)cc1` [Compound 56] stands 158000 nM.
To `CCc1nc2cc(Cl)c(OC)cn2c1C(=O)NCc1ccc(N2CCN(S(=O)(=O)C(F)(F)F)C(OC)=N2)cc1` [Compound 45] belongs 39.8 nM; to `CCc1nc2ncc(C)cn2c1C(=O)NCc1ccc(N2CCN(S(=O)(=O)C(F)(F)F)C(OC)=N2)c(F)c1` [Compound 193], 0.891 nM; to `COC1=NN(c2ccc(CNC(=O)c3c(C(F)(F)F)nc4ccc(Cl)cn34)cc2F)CCN1S(=O)(=O)C(F)(F)F` [Compound 117], 14.8 nM.
For `Cc1cc(F)c2ncc(C(=O)NCc3ccc(N4CCN(S(=O)(=O)C(F)(F)F)C=N4)c(F)c3)n2c1` [Compound 173], the IC50 was 50.1 nM.
Under `CCc1nc2ncc(C(C)=O)cn2c1C(=O)NCc1ccc(N2CCN(S(=O)(=O)C(F)(F)F)C=N2)cc1` [Compound 62] stands at least 501 nM.
Under `CCc1nc2nc(NC)c(Cl)cn2c1C(=O)NCc1ccc(N2CCN(S(=O)(=O)C(F)(F)F)C=N2)c(F)c1` [Compound 83] stands 372 nM; under `CCc1nc2nc(N3CCCC3)c(Cl)cn2c1C(=O)NCc1ccc(N2CCN(S(=O)(=O)C(F)(F)F)C=N2)c(F)c1` [Compound 82], at least 501 nM.
To `O=C(NCc1cnc(N2CCN(S(=O)(=O)C(F)(F)F)C=N2)c(F)c1)c1c(C(F)(F)F)nc2c(F)cccn12` [Compound 182] belongs 31.6 nM.
For the molecule `CCc1nc2c(F)cc(C)cn2c1C(=O)NCc1ccc(N2CCNC=N2)c(F)c1` [Compound 198], the IC50 was 93.3 nM.
Regarding `CCc1nc2nc(N)c(F)cn2c1C(=O)NCc1ccc(N2CCN(S(=O)(=O)C(F)(F)F)C=N2)c(F)c1` [Compound 170], the IC50 is 316 nM.
To `CCc1nc2ccc(Cl)cn2c1C(=O)NCc1ccc(N2CCN(S(=O)(=O)C(F)(F)F)C(OC)=N2)c(F)c1` [Compound 37] belongs 3.98 nM.
To `CCc1nc2c(Br)cc(C)cn2c1C(=O)NCc1ccc(N2CCN(S(=O)(=O)C(F)(F)F)C=N2)c(F)c1` [Compound 166] belongs 245 nM.
Under `CCc1nc2nc3c(cn2c1C(=O)NCc1ccc(N2CCN(S(=O)(=O)C(F)(F)F)C(C)=N2)cc1)CCOC3` [Compound 217] stands 14.1 nM.
Turning to `CCc1nc2ncc(Cl)cn2c1C(=O)NCc1cnc(N2CCN(S(=O)(=O)C(F)(F)F)C=N2)c(F)c1` [Compound 168], the IC50 was 38.9 nM.
